Measurements: publication PMC6045348 (ACS Omega, 2018)

Target: Ser–Thr PP-1 catalytic subunit (PP1c) (Oryctolagus cuniculus, UniProt P62139)
Assay: DiFMUP fluorescence phosphatase assay, residual activity […] at […]
Assay type: biochemical

Ser–Thr PP-1 catalytic subunit (PP1c), sequence (P62139 2-330): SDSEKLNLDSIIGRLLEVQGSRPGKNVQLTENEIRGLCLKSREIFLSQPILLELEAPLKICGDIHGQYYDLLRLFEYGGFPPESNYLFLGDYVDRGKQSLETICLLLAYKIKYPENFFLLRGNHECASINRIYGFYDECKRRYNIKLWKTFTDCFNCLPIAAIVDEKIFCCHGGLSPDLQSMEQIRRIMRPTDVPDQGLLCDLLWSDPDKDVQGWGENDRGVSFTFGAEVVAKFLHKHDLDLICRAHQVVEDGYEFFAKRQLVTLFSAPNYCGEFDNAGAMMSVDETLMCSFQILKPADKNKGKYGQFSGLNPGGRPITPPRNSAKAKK

CN1C[C@@H](c2c[nH]c3cc(Br)ccc23)NC[C@@H]1c1c[nH]c2cc(Br)ccc12 [compound 3, dragmacidin A]
IC50: ~10 µM
